Where two headings read alike, the source gives them in different places.

Series [1] is described as follows: Stability in human liver microsome in vitro. Format: in vitro ADME. On the procedure:
(§1) To evaluate the metabolic stability of the compounds of the present invention in liver microsome in vitro.
(§2) Formulation of the working solution of the compound: 2 μL of the stock solution of the compound was added to 998 μL of phosphate buffer, and the final concentration was 20 μM.
(§3) 78.1 μL of 20 mg/mL microsome was diluted to 2.5 mL with 100 mM phosphate buffer and mixed well, and the final concentration was 0.625 mg/mL.
(§4) 33.3 mg of NADPH and 25.8 mg of UDPGA were weighed respectively, followed by the addition of 2 mL of 100 mM phosphate buffer. The final concentrations were 20 mM.
(§5) 1 mg of Alamethicin was weighed, to which 200 μL of DMSO was added to obtain a 5 mg/mL solution. 10 μL of this solution was added to 990 μL of phosphate buffer (pH 7.4), and the final concentration was 50 μg/mL.
(§6) 400 μL of the formulated liver microsome, 25 μL of the working solution of the compound (10 μM) and 25 μL of Alamethicin (50 μg/mL) were added to a 96-well plate successively, which was then pre-incubated at 37° C. for 10 min. 50 μL of the formulated NADPH/UDPGA was added to initiate the reaction, and the plate was incubated at 37° C. The total volume of the reaction system was 500 μL. The final contents of the components are as follows:
(§7) […] The resulting sample was centrifuged at 4000 g for 10 min, and the supernatant was collected for LC-MS/MS analysis.
(Microsomes from liver hold many membrane-bound enzymes, among them those of drug oxidation.)

Another series relates to rats. Kind of series: Pharmacodynamic model of active escape experiment in rats. Format: in vivo. The conditions noted are these: F344 rats, oral dose 1 mg/kg one hour before test; vehicle 91-98%. As to the method: To evaluate the anti-schizophrenic effect of the compounds using the pharmacodynamic model of the active escape experiment in rats.
A prescription amount of the compound was weighed, followed by the addition of a prescription volume of 0.5% CMC-Na+1% Tween 80 solution. The compound solution was formulated before the administration, stored at 2 to 8° C., and used within 4 days.
5.2 Baseline Test and Grouping
The day before the compound screening test, a baseline test was performed. The test process was the same as 5.1.1 to 5.1.3, and the number of the baseline test was 20. The animals whose number of avoids reached 16 (80%) were grouped according to the number of avoids, 10 animals per group. The first group was administered with the vehicle orally, and the other groups were administered with the corresponding test compounds according to the experimental design.
The compound was administered orally (5 mL/kg) one hour before the test; The test process was the same as 5.1.1 to 5.1.4, and the number of the test was 20.
The following data was collected by the software for data analysis: • Number of avoids of the animal; • Number of escape failures of the animal; • Escape latency of the animal; • All measurement data were expressed as mean±standard error (Mean±SEM), and analyzed by Graphpad 6 statistical software. The difference was considered to be significant when p<0.05. 7.

The nature of series [2]: Pharmacokinetic assay in Balb/c mice (plasma and brain tissue). Type of series: in vivo. The conditions noted are these: male, mouse, po, p.o. 5 mg/kg; for AUC(0-t): read-out: Area under curve AUC0-t; for Tmax: read-out: Peak time tmax; for Cmax: read-out: Plasma concentration Cmax. On the procedure: Balb/c mice were used as test animals. The pharmacokinetic behavior in mouse body (plasma and brain tissue) of the compounds of Examples of the present invention orally administrated at a dose of 5 mg/kg was studied.
Male Balb/c mice (12 mice per group), purchased from Shanghai Jiesijie Laboratory Animal Co., LTD, with Certificate No.: SCXK (Shanghai) 2013-0006 N0.311620400001794.
The test compound was dissolved in 0.5% CMC-Na (1% Tween80) by sonication to formulate a clear solution or homogeneous suspension.
After an overnight fast, male Balb/c mice (12 mice per group) were administered p.o. with the test compound at an administration dose of 5 mg/kg and an administration volume of 10 mL/kg.
0.2 mL of blood was taken from the heart of the mouse before administration and at 1, 2, 4, 8 and 24 hours after administration, and the mice were sacrificed with CO2. The samples were stored in EDTA-K2 tubes, and centrifuged for 6 minutes at 4° C., 6000 rpm to separate the plasma. The plasma samples were stored at −80° C. Whole brain tissue was taken out, weighed, placed in a 2 mL centrifuge tube, and stored at −80° C.
• 1) 160 μL of acetonitrile was added to 40 μL of the plasma sample for precipitation, and then the mixture was centrifuged for 5 to 20 minutes at 3500×g. • 2) 90 μL of acetonitrile containing internal standard (100 ng/mL) was added to 30 µL of the plasma and brain homogenate sample for precipitation, and then the mixture was centrifuged for 8 minutes at 13000 rpm. • 3) 70 μL of water was added to 70 μL of the treated supernatant and mixed by vortex for 10 minutes. 20 μL of the supernatant was taken to analyze the concentration of the test compound by LC/MS/MS. LC/MS/MS analytical instrument: AB Sciex API 4000 Qtrap. 2.7 Liquid Chromatography Analysis: • Liquid chromatography condition: Shimadzu LC-20AD pump • Chromatographic column: Agilent ZORBAX XDB-C18 (50×2.1 mm, 3.5 m); Mobile phase: Eluent A was 0.1% formic acid in water, and Eluent B was acetonitrile • Flow rate: 0.4 mL/min • Elution time: 0-4.0 minutes, the eluent is as follows:
The main parameters of pharmacokinetics were calculated by WinNonlin 6.1.

Series [3] is described as follows: Stability in rat liver microsome in vitro. Type of series: in vitro ADME, SD rat. On the procedure: as §1, §2, §3, §4, §5, §6, §7
The nature of series [4]: Stability in dog liver microsome in vitro. Type of series: in vitro ADME. On the procedure: as §1, §2, §3, §4, §5, §6, §7

One may read the Tmax as the time at which the peak concentration occurs. By MRT is commonly meant a mean duration of stay, worked out from the concentration-time curve. Regarding `O=C(N[C@H]1C[C@H](CCN2CCN(c3cccc(Cl)c3Cl)CC2)C1)c1ccon1` [Example 25A, N-(Trans-3-(2-(4-(2,3-dichlorophenyl)piperazin-1-yl)ethyl)cyclobutyl)isoxazole-3-carboxamide], the “Remaining (%, 120 min)” value stood at 38.8% in series [1] (120 min), 27.0% in series [3] (120 min) and 30.2% in series [4] (120 min). Also, the half-life at 1 μM in series [1] (human liver microsomes, pH 7.4, 1 μM compound, NADPH/UDPGA, read-out: Half life (t1/2)) worked out at 1.5 h; in series [3] (SD, rat liver microsomes, pH 7.4, 1 μM compound, NADPH/UDPGA, read-out: Half life (t1/2)) it was 1.01 h; in series [4] (dog liver microsomes, pH 7.4, 1 μM compound, NADPH/UDPGA, read-out: Half life (t1/2)) it was 1.16 h. In addition, the microsomal CLint at 1 μM in series [1] (human liver microsomes, pH 7.4, 1 μM compound, NADPH/UDPGA, read-out: Intrinsic clearance rate (CLint)) stood at 15.4 µL/min/mg; in series [3] (SD, rat liver microsomes, pH 7.4, 1 μM compound, NADPH/UDPGA, read-out: Intrinsic clearance rate (CLint)) it was 22.9 µL/min/mg; in series [4] (dog liver microsomes, pH 7.4, 1 μM compound, NADPH/UDPGA, read-out: Intrinsic clearance rate (CLint)) it was 19.9 µL/min/mg. The compound also showed a CAR value in the series on rats of 18%. Moreover, the AUC(0-t) in series [2] (Brain) was 11900 ng·h/mL; in series [2] (Plasma), 3050 ng·h/mL. In addition, the Tmax was 1 h in series [2] (Brain) and 0.5 h in series [2] (Plasma). The Cmax in series [2] (Brain) turned out to be 1540 ng/mL; in series [2] (Plasma) it was 362 ng/mL. The AUC(0-inf) in series [2] (Plasma, read-out: Area under curve AUC0-∞) was 12900 ng·h/mL. Besides, in series [2] (Plasma, read-out: Average residence time MRT), the MRT was 6.2 h. Also, the half-life in series [2] (Plasma, read-out: Half life t1/2 (converted)) was 5.6 h.

Source of the values: patent US12617759B2, “Modifier of four-membered ring derivative, preparation method and application thereof” (Shanghai Hansoh Biomedical Co., Ltd., priority 2019, dated 2026).
